Patent US9969724B2, “Factor IXa inhibitors” (Merck Sharp & Dohme Corp., priority 2014, dated 2018)

target: human factor IXa (Homo sapiens (Human), UniProt P00740); assay: Determination of Inhibitory Activity Against Factor IXa; format: biochemical; settings: Factor IXa enzyme assay human; read-out: FIXa IC50
Protocol: Inhibitory activity against factor IXa was tested using the substrate SPECTROFLUOR FIXa (american diagnostica inc.; 500 West Avenue, Stamford, Conn. 06902 USA; Pr. No. 299F) and human factor IXa (american diagnostica inc.; Pr. No. 449b). Test substances were dissolved in buffer A (50 mM α,α,α-tris(hydroxymethyl) methylamine (Tris), 100 mM NaCl, 5 mM CaCl2, 15% (v/v) ethylene glycol, pH 8.0) were mixed with factor IXa (0.1 μg/ml final concentration). The enzyme reaction was started by addition of SPECTROFLUOR FIXa (100 μM final concentration). After incubation for 60 minutes at room temperature, the reaction was stopped by the addition of 20% (v/v) acetic acid solution, and then the fluorescence value was measured (Excitation Wavelength: 355 nm, Emission Wavelength; 460 nm) in a microtiter plate reader (ARVO 1420 Multilabel Counter; PerkinElmer).
The IC50 was calculated from a dilution series of the test substance with the aid of the software, Symyx Assay Explorer (Symyx Technologies, Inc.).

human factor IXa, sequence (P00740 227-461): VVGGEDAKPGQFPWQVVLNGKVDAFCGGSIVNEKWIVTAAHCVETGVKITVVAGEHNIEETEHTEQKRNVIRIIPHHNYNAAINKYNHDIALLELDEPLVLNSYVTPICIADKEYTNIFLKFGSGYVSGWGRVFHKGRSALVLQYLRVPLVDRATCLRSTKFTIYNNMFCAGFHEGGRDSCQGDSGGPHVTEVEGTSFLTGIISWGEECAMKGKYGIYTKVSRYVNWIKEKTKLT
human factor IXa, sequence (P00740 47-191 partner): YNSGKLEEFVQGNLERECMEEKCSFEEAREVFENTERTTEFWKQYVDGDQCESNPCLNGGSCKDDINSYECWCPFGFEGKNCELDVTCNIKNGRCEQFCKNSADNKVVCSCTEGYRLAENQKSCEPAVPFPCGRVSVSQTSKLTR

IC50 | Compound
≤ 100 nM | Nc1noc2c(N3CC[C@@H](NC(=O)c4ccc(-n5cnc6ncccc65)cc4Cl)C3)ncc(Cl)c12 [Example 32, (R)—N-(1-(3-Amino-4-chloroisoxazolo[5,4-c]pyridin-7-yl)pyrrolidin-3-yl)-2-chloro-4-(1H-imidazo[4,5-b]pyridin-1-yl)benzamide]
≤ 100 nM | Nc1noc2c(N3CC[C@@H](NC(=O)c4ccc(-c5cnccn5)cc4Cl)C3)ncc(Cl)c12 [Example 33, (R)—N-(1-(3-Amino-4-chloroisoxazolo[5,4-c]pyridin-7-yl)pyrrolidin-3-yl)-2-chloro-4-(pyrazin-2-yl)benzamide]
≤ 100 nM | Cc1ncn(-c2ccc(C(=O)N[C@@H]3CCN(c4cc(C#N)cc5c(N)noc45)C3)c(Cl)c2)n1 [Example 34, (R)—N-(1-(3-Amino-5-cyanobenzo[d]isoxazol-7-yl)pyrrolidin-3-yl)-2-chloro-4-(3-methyl-1H-1,2,4-triazol-1-yl)benzamide]
≤ 100 nM | Nc1noc2c(N3CC[C@@H](NC(=O)c4ccc(-c5ccc(=O)n(CC(F)(F)F)c5)cc4Cl)C3)ncc(Cl)c12 [Example 35, (R)—N-(1-(3-Amino-4-chloroisoxazolo[5,4-c]pyridin-7-yl)pyrrolidin-3-yl)-2-chloro-4-(6-oxo-1-(2,2,2-trifluoroethyl)-1,6-dihydropyridin-3-yl)benzamide]
≤ 100 nM | Nc1noc2c(N3CC[C@@H](NC(=O)c4ccc(-n5cnnc5)cc4)C3)ncc(Cl)c12 [Example 36, (R)—N-(1-(3-Amino-4-chloroisoxazolo[5,4-c]pyridin-7-yl)pyrrolidin-3-yl)-4-(4H-1,2,4-triazol-4-yl)benzamide]
≤ 100 nM | Nc1noc2c(N3CC[C@@H](NC(=O)c4ccc(-c5ccc(=O)n(C(F)F)c5)cc4Cl)C3)ncc(Cl)c12 [Example 37, (R)—N-(1-(3-Amino-4-chloroisoxazolo[5,4-c]pyridin-7-yl)pyrrolidin-3-yl)-2-chloro-4-(1-(difluoromethyl)-6-oxo-1,6-dihydropyridin-3-yl)benzamide]
≤ 100 nM | Nc1noc2c(N3CC[C@@H](NC(=O)c4ccc(-c5ccc6nncn6c5)cc4Cl)C3)ncc(Cl)c12 [Example 38, (R)-4-([1,2,4]Triazolo[4,3-a]pyridin-6-yl)-N-(1-(3-amino-4-chloroisoxazolo[5,4-c]pyridin-7-yl)pyrrolidin-3-yl)-2-chlorobenzamide]
100 to 1000 nM | Cc1ncn(-c2ccc(C(=O)N[C@@H]3CCN(c4nc(C(F)F)cc5c(N)noc45)C3)c(Cl)c2)n1 [Example 39, (R)—N-(1-(3-Amino-5-(difluoromethyl)isoxazolo[5,4-c]pyridin-7-yl)pyrrolidin-3-yl)-2-chloro-4-(3-methyl-1H-1,2,4-triazol-1-yl)benzamide]
≤ 100 nM | Cn1nc(-c2ccc(C(=O)N[C@@H]3CCN(c4ncc(Cl)c5c(N)noc45)C3)c(Cl)c2)ccc1=O [Example 40, (R)—N-(1-(3-Amino-4-chloroisoxazolo[5,4-c]pyridin-7-yl)pyrrolidin-3-yl)-2-chloro-4-(1-methyl-6-oxo-1,6-dihydropyridazin-3-yl)benzamide]
≤ 100 nM | Cc1ncn(-c2ccc(C(=O)N[C@@H]3CCN(c4nc(C#N)cc5c(N)noc45)C3)c(Cl)c2)n1 [Example 41, (R)—N-(1-(3-Amino-5-cyanoisoxazolo[5,4-c]pyridin-7-yl)pyrrolidin-3-yl)-2-chloro-4-(3-methyl-1H-1,2,4-triazol-1-yl)benzamide]
≤ 100 nM | Cc1cc2c(N)noc2c(N2CC[C@@H](NC(=O)c3ccc(-n4cc(CCO)nn4)cc3Cl)C2)n1 [Example 42, (R)—N-(1-(3-Amino-5-methylisoxazolo[5,4-c]pyridin-7-yl)pyrrolidin-3-yl)-2-chloro-4-(4-(2-hydroxyethyl)-1H-1,2,3-triazol-1-yl)benzamide]
≤ 100 nM | Nc1noc2c(N3CC[C@@H](NC(=O)c4ccc(-n5cnnc5C(F)(F)F)cc4Cl)C3)ncc(Cl)c12 [Example 43, (R)—N-(1-(3-Amino-4-chloroisoxazolo[5,4-c]pyridin-7-yl)pyrrolidin-3-yl)-2-chloro-4-(3-(trifluoromethyl)-4H-1,2,4-triazol-4-yl)benzamide]
≤ 100 nM | Cn1cc(-c2ccc(C(=O)N[C@@H]3CCN(c4ncc(Cl)c5c(N)noc45)C3)c(Cl)c2)cnc1=O [Example 44, (R)—N-(1-(3-Amino-4-chloroisoxazolo[5,4-c]pyridin-7-yl)pyrrolidin-3-yl)-2-chloro-4-(1-methyl-2-oxo-1,2-dihydropyrimidin-5-yl)benzamide]
≤ 100 nM | Cn1ncn(-c2ccc(C(=O)N[C@@H]3CCN(c4ncc(Cl)c5c(N)noc45)C3)c(Cl)c2)c1=O [Example 45, (R)—N-(1-(3-Amino-4-chloroisoxazolo[5,4-c]pyridin-7-yl)pyrrolidin-3-yl)-2-chloro-4-(1-methyl-5-oxo-1,5-dihydro-4H-1,2,4-triazol-4-yl)benzamide]
≤ 100 nM | Nc1noc2c(N3CC[C@@H](NC(=O)c4ccc(-n5cn[nH]c5=O)cc4Cl)C3)ncc(Cl)c12 [Example 46, (R)—N-(1-(3-Amino-4-chloroisoxazolo[5,4-c]pyridin-7-yl)pyrrolidin-3-yl)-2-chloro-4-(5-oxo-1,5-dihydro-4H-1,2,4-triazol-4-yl)benzamide]
≤ 100 nM | Nc1noc2c(N3CC[C@@H](NC(=O)c4ccc(-n5cnn(CCO)c5=O)cc4Cl)C3)ncc(Cl)c12 [Example 47, (R)—N-(1-(3-Amino-4-chloroisoxazolo[5,4-c]pyridin-7-yl)pyrrolidin-3-yl)-2-chloro-4-(1-(2-hydroxyethyl)-5-oxo-1,5-dihydro-4H-1,2,4-triazol-4-yl)benzamide]
≤ 100 nM | Nc1noc2c(N3CC[C@@H](NC(=O)c4ccc(-n5cnc6cncnc65)cc4Cl)C3)ncc(Cl)c12 [Example 48, (R)—N-(1-(3-Amino-4-chloroisoxazolo[5,4-c]pyridin-7-yl)pyrrolidin-3-yl)-2-chloro-4-(9H-purin-9-yl)benzamide]
≤ 100 nM | Cc1cc2c(N)noc2c(N2CC[C@@H](NC(=O)c3c(Cl)cc(-n4cnn(C)c4=O)cc3Cl)C2)n1 [Example 49, (R)—N-(1-(3-Amino-5-methylisoxazolo[5,4-c]pyridin-7-yl)pyrrolidin-3-yl)-2,6-dichloro-4-(1-methyl-5-oxo-1,5-dihydro-4H-1,2,4-triazol-4-yl)benzamide]
≤ 100 nM | Nc1noc2c(N3CC[C@@H](NC(=O)c4ccc(-n5cnn(CC(F)(F)F)c5=O)cc4Cl)C3)ncc(Cl)c12 [Example 50, (R)—N-(1-(3-Amino-4-chloroisoxazolo[5,4-c]pyridin-7-yl)pyrrolidin-3-yl)-2-chloro-4-(5-oxo-1-(2,2,2-trifluoroethyl)-1,5-dihydro-4H-1,2,4-triazol-4-yl)benzamide]
≤ 100 nM | Nc1noc2c(N3CC[C@@H](NC(=O)c4ccc(-n5cnc6ncncc65)cc4Cl)C3)ncc(Cl)c12 [Example 51, (R)—N-(1-(3-Amino-4-chloroisoxazolo[5,4-c]pyridin-7-yl)pyrrolidin-3-yl)-2-chloro-4-(7H-purin-7-yl)benzamide]
100 to 1000 nM | Cc1ncn(-c2cnc(C(=O)N[C@@H]3CCN(c4ncc(Cl)c5c(N)noc45)C3)c(Cl)c2)n1 [Example 52, (R)—N-(1-(3-Amino-4-chloroisoxazolo[5,4-c]pyridin-7-yl)pyrrolidin-3-yl)-3-chloro-5-(3-methyl-1H-1,2,4-triazol-1-yl)picolinamide]
≤ 100 nM | Nc1noc2c(N3CC[C@@H](NC(=O)c4ccc(-c5ccnc(CO)c5)cc4Cl)C3)ccc(Cl)c12 [Example 53, (R)—N-(1-(3-Amino-4-chlorobenzo[d]isoxazol-7-yl)pyrrolidin-3-yl)-2-chloro-4-(2-(hydroxymethyl)pyridin-4-yl)benzamide]
